Results reported in ChEMBL document CHEMBL4507274 (2021).

What was measured:
[1] = target: Receptor tyrosine-protein kinase erbB-4 (Homo sapiens) (UniProt Q15303); conditions: Compound concentration 100.0 nM
[2] = tested on: Receptor-type tyrosine-protein kinase FLT3 (Homo sapiens), P36888 [UNDEFINED MUTATION]; conditions: Compound concentration 100.0 nM
[3] = tested on: Phosphatidylinositol 4,5-bisphosphate 3-kinase catalytic subunit alpha isoform (Homo sapiens), P42336 [E545K]; conditions: Compound concentration 100.0 nM
[4] = target: Serine/threonine-protein kinase MARK1 (Homo sapiens) (UniProt Q9P0L2); conditions: Compound concentration 100.0 nM
[5] = target: Serine/threonine-protein kinase Nek10 (Homo sapiens) (UniProt Q6ZWH5); conditions: Compound concentration 100.0 nM
Sequence of Serine/threonine-protein kinase Nek10 (Homo sapiens) (Q6ZWH5 whole entry): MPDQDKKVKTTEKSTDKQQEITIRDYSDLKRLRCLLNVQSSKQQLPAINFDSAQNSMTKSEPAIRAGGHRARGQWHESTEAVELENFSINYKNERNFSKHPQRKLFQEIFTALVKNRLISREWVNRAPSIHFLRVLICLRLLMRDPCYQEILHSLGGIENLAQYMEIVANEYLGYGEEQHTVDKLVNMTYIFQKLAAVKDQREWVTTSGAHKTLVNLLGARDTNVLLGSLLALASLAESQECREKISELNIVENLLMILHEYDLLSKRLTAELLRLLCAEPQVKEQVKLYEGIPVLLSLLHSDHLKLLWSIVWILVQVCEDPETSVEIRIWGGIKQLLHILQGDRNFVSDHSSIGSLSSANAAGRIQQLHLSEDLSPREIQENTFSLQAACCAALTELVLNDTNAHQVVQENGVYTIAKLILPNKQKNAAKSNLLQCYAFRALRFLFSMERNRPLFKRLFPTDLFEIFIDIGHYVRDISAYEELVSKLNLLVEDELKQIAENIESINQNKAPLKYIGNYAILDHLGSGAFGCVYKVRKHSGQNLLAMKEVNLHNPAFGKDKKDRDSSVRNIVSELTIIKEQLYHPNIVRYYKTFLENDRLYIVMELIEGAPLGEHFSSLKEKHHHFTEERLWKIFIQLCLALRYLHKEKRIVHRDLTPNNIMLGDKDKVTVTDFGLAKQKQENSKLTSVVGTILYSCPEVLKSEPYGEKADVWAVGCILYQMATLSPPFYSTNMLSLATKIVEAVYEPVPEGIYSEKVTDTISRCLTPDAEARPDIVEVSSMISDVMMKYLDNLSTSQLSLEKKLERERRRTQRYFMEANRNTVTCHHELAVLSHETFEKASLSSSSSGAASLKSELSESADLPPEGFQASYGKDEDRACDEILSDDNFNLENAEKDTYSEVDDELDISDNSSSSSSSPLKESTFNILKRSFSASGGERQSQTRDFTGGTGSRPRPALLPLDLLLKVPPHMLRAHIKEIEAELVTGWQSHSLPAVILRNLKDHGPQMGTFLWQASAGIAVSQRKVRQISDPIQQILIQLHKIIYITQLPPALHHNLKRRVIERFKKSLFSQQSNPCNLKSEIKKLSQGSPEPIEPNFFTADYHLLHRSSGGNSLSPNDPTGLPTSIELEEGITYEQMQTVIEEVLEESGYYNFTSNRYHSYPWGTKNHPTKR

[6] = target: Maternal embryonic leucine zipper kinase (Homo sapiens) (UniProt Q14680); conditions: Compound concentration 100.0 nM
[7] = target: Vascular endothelial growth factor receptor 1 (Homo sapiens) (UniProt P17948); conditions: Compound concentration 100.0 nM
[8] = target: Ephrin type-A receptor 2 (Homo sapiens) (UniProt P29317); conditions: Compound concentration 100.0 nM
[9] = target: Serine/threonine-protein kinase MRCK alpha (Homo sapiens) (UniProt Q5VT25); conditions: Compound concentration 100.0 nM
[10] = target: Inhibitor of nuclear factor kappa-B kinase subunit beta (Homo sapiens) (UniProt O14920); conditions: Compound concentration 100.0 nM
[11] = target: Mitogen-activated protein kinase kinase kinase kinase 5 (Homo sapiens) (UniProt Q9Y4K4); conditions: Compound concentration 100.0 nM
Sequence of Mitogen-activated protein kinase kinase kinase kinase 5 (Homo sapiens) (Q9Y4K4 whole entry, looked up): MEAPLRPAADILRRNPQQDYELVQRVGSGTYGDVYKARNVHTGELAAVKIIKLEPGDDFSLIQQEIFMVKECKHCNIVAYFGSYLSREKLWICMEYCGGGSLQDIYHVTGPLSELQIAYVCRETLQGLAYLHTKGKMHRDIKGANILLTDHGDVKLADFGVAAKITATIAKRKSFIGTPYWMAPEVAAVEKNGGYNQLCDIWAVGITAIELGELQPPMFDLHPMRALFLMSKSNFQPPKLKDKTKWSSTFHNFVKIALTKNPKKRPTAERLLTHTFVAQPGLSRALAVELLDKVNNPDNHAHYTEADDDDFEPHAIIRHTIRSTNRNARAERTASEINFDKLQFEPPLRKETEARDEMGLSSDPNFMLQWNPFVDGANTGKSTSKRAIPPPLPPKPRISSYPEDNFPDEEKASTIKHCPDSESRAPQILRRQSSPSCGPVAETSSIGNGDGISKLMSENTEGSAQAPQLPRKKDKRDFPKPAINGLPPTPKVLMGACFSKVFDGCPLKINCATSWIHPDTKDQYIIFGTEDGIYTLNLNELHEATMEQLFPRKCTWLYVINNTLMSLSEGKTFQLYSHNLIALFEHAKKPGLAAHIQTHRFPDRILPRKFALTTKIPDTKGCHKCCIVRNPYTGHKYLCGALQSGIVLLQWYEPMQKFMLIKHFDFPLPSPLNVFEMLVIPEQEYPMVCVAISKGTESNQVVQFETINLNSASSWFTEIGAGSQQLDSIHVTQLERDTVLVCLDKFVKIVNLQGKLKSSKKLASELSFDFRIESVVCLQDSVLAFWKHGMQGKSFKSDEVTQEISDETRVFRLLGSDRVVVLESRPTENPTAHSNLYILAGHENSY

[12] = target: G protein-coupled receptor kinase 4 (Homo sapiens) (UniProt P32298); conditions: Compound concentration 100.0 nM
Sequence of G protein-coupled receptor kinase 4 (Homo sapiens) (P32298 whole entry, looked up): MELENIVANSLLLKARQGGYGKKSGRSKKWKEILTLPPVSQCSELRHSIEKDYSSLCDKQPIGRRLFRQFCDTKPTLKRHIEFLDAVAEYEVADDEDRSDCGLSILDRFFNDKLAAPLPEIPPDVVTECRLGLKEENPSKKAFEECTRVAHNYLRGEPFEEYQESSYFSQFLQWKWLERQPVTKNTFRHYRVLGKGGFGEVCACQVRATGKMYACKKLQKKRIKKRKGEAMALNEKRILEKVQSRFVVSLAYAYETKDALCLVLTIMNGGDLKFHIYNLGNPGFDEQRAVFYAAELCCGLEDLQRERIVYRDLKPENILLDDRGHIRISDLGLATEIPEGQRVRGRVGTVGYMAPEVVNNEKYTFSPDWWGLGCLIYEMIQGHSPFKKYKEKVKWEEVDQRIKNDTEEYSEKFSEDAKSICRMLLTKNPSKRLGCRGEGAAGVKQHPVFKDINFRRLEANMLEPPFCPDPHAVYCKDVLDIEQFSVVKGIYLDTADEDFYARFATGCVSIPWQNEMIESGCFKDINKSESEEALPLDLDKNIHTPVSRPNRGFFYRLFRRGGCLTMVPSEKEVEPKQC

[13] = target: Fibroblast growth factor receptor 1 (Homo sapiens) (UniProt P11362); conditions: Compound concentration 100.0 nM
[14] = tested on: eIF-2-alpha kinase GCN2 (Homo sapiens), Q9P2K8 [S808G]; conditions: Compound concentration 100.0 nM
[15] = tested on: Proto-oncogene tyrosine-protein kinase receptor Ret (Homo sapiens), P07949 [V804L]; conditions: Compound concentration 100.0 nM
[16] = tested on: Proto-oncogene tyrosine-protein kinase receptor Ret (Homo sapiens), P07949 [V804M]; conditions: Compound concentration 100.0 nM
[17] = target: Sigma non-opioid intracellular receptor 1 (Homo sapiens, UniProt Q99720); conditions: Compound concentration 10.0 uM
[18] = target: Mitogen-activated protein kinase kinase kinase kinase 2 (Homo sapiens) (UniProt Q12851); conditions: Compound concentration 100.0 nM
Sequence of Mitogen-activated protein kinase kinase kinase kinase 2 (Homo sapiens) (Q12851 whole entry): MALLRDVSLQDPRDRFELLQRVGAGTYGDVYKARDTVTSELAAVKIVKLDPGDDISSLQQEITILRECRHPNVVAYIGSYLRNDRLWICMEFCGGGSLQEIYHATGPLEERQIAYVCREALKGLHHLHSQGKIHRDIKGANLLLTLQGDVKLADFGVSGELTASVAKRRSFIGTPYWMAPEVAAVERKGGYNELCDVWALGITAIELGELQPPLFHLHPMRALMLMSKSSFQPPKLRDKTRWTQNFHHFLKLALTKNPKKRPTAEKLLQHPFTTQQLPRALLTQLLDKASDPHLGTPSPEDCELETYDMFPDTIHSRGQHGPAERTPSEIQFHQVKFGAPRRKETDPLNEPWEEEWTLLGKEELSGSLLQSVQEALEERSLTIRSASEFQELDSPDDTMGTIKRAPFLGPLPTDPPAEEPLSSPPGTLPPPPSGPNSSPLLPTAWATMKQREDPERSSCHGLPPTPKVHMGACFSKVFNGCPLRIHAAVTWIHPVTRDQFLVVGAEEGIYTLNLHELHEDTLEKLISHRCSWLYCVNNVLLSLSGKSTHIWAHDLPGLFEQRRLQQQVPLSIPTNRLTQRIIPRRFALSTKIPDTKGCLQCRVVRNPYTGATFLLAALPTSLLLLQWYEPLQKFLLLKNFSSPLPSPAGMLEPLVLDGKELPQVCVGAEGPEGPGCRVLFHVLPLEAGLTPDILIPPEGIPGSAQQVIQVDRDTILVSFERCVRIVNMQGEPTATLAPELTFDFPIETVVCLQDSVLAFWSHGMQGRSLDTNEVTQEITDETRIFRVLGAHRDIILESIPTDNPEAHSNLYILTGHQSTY

[19] = target: Cyclin-dependent kinase 2 homolog (Plasmodium falciparum (isolate 3D7)) (UniProt P61075); conditions: Compound concentration 100.0 nM
Sequence of Cyclin-dependent kinase 2 homolog (Plasmodium falciparum (isolate 3D7)) (P61075 whole entry): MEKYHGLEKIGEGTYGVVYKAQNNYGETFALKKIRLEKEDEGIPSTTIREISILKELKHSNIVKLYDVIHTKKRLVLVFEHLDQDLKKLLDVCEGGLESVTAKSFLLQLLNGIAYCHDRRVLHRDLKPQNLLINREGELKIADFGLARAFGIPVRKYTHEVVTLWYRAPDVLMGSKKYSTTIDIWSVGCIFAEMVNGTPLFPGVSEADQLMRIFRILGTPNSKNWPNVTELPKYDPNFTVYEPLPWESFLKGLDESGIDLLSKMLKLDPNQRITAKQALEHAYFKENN

[20] = target: Serine/threonine-protein kinase PAK 4 (Homo sapiens) (UniProt O96013); conditions: Compound concentration 100.0 nM
[21] = target: Hepatocyte growth factor receptor (Homo sapiens) (UniProt P08581); conditions: Compound concentration 100.0 nM
[22] = target: Tyrosine-protein kinase Fer (Homo sapiens) (UniProt P16591); conditions: Compound concentration 100.0 nM
[23] = target: TGF-beta receptor type-2 (Homo sapiens) (UniProt P37173); conditions: Compound concentration 100.0 nM
Sequence of TGF-beta receptor type-2 (Homo sapiens) (P37173 whole entry): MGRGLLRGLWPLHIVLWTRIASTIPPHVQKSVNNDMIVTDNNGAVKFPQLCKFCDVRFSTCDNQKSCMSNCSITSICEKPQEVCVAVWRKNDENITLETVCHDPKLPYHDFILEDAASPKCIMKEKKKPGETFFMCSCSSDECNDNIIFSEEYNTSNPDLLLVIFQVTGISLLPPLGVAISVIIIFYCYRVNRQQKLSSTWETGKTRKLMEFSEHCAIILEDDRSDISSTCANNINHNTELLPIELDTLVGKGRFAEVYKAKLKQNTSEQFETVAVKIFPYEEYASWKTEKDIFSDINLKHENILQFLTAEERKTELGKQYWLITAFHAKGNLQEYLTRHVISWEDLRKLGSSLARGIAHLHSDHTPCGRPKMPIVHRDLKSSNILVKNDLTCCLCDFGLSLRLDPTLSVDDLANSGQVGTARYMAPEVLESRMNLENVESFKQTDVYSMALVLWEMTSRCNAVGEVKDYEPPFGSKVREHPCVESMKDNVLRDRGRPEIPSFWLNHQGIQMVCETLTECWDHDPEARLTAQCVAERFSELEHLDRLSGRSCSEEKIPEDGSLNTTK

[24] = target: Alpha-1A adrenergic receptor (Homo sapiens) (UniProt P35348); conditions: Compound concentration 10.0 uM
Sequence of Alpha-1A adrenergic receptor (Homo sapiens) (P35348 whole entry): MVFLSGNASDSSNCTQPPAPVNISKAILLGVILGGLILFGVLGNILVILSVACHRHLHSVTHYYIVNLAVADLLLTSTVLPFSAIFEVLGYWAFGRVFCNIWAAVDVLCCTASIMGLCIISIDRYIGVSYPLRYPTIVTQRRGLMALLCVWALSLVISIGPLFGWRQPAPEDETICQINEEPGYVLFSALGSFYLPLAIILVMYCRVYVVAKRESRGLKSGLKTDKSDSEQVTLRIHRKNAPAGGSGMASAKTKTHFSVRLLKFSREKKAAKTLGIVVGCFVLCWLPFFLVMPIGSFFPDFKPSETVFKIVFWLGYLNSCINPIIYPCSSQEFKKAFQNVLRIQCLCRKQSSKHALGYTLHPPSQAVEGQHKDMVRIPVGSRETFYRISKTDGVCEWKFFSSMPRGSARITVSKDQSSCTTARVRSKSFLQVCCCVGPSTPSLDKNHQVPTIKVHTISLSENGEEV

[25] = target: Serine/threonine-protein kinase 32C (Homo sapiens) (UniProt Q86UX6); conditions: Compound concentration 100.0 nM
[26] = target: Tyrosine-protein kinase SYK (Homo sapiens) (UniProt P43405); conditions: Compound concentration 100.0 nM
[27] = target: Tyrosine-protein kinase receptor UFO (Homo sapiens) (UniProt P30530); conditions: Compound concentration 100.0 nM
[28] = target: Myosin light chain kinase (Homo sapiens) (UniProt Q32MK0); conditions: Compound concentration 100.0 nM
[29] = target: T1, Protein kinase C epsilon type (Homo sapiens) (UniProt Q02156); conditions: Compound concentration 100.0 nM
T1 sequence (whole entry): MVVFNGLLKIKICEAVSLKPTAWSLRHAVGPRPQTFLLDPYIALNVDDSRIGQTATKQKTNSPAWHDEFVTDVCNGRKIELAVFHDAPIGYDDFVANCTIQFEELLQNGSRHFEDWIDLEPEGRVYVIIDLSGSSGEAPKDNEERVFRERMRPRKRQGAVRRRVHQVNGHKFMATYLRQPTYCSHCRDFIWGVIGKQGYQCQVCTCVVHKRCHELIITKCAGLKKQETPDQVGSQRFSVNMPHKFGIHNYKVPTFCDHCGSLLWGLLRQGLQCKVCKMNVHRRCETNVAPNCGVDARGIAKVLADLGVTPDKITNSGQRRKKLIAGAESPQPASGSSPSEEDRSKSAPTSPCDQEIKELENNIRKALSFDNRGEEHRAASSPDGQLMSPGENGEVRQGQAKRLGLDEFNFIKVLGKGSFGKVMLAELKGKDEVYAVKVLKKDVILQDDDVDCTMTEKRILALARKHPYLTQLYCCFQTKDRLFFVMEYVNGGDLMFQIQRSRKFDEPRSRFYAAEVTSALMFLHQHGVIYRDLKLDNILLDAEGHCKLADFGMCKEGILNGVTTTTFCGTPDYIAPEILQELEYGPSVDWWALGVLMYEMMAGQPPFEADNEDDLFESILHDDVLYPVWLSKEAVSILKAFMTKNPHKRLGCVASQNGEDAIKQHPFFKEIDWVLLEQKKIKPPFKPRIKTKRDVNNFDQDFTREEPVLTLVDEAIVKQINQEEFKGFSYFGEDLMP

[30] = target: Cyclin-dependent kinase 4 (Homo sapiens) (UniProt P11802); conditions: Compound concentration 100.0 nM
[31] = target: Serine/threonine-protein kinase 16 (Homo sapiens) (UniProt O75716); conditions: Compound concentration 100.0 nM
Sequence of Serine/threonine-protein kinase 16 (Homo sapiens) (O75716 whole entry): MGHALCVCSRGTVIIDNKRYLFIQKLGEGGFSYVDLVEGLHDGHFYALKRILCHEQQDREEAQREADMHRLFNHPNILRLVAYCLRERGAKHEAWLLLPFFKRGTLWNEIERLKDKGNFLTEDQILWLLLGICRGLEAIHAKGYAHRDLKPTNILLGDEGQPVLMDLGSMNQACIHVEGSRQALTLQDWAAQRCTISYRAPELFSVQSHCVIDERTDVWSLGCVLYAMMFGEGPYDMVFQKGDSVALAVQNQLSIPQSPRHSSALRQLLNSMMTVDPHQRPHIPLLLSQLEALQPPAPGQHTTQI

[32] = target: 5'-AMP-activated protein kinase catalytic subunit alpha-1 (Homo sapiens) (UniProt Q13131); conditions: Compound concentration 100.0 nM
[33] = target: Mitotic checkpoint serine/threonine-protein kinase BUB1 (Homo sapiens) (UniProt O43683); conditions: Compound concentration 100.0 nM
[34] = target: Mu-type opioid receptor (Homo sapiens) (UniProt P35372); conditions: Compound concentration 10.0 uM
[35] = target: Serine/threonine-protein kinase haspin (Homo sapiens) (UniProt Q8TF76); conditions: Compound concentration 100.0 nM

Compound | residual activity [1] [%] | residual activity [2] [%] | residual activity [3] [%] | residual activity [4] [%] | residual activity [5] [%] | residual activity [6] [%] | residual activity [7] [%] | residual activity [8] [%] | residual activity [9] [%] | residual activity [10] [%] | residual activity [11] [%] | residual activity [12] [%] | residual activity [13] [%] | residual activity [14] [%] | residual activity [15] [%] | residual activity [16] [%] | inhibition [17] [%] | residual activity [18] [%] | residual activity [19] [%] | residual activity [20] [%] | further results
Cn1cc(Cl)c2c(Oc3c(F)cc(Nc4cc(Cl)nc(N)n4)cc3F)ccnc21 [BAY-4900] | 97 | 100 | 78 | 100 | 66 | 89 | 100 | 100 | 84 | 87 | 91 | 100 | 100 | 100 | 91 | 95 | 22.3 | 81 | 68 | 100 | residual activity [21]: 90%; residual activity [22]: 100%; residual activity [23]: 90%; inhibition [24]: -5.31%; residual activity [25]: 100%; residual activity [26]: 100%; residual activity [27]: 100%; residual activity [28]: 94%; residual activity [29]: 91%; residual activity [30]: 85%; residual activity [31]: 100%; residual activity [32]: 100%; residual activity [33]: 82%; inhibition [34]: -9.98%; residual activity [35]: 74%
Cc1c[nH]c2nccc(Oc3c(F)cc(Nc4cc(Cl)nc(N)n4)cc3F)c12 [BAY-549] | 100 | 97 | 82 | 82 | 75 | 57 | 100 | 100 | 98 | 69 | 93 | 100 | 100 | 100 | 100 | 100 | 54.8 | 69 | 72 | 100 | residual activity [21]: 83%; residual activity [22]: 100%; residual activity [23]: 100%; inhibition [24]: -7.18%; residual activity [25]: 93%; residual activity [26]: 100%; residual activity [27]: 93%; residual activity [28]: 91%; residual activity [29]: 96%; residual activity [30]: 67%; residual activity [31]: 87%; residual activity [32]: 100%; residual activity [33]: 75%; inhibition [34]: -0.03%; residual activity [35]: 61%
